Results as given in PubChem BioAssay AID179 (DTP/NCI, 2004).
pEC50, pIC50: −log10 of the molar value. Activity calls are given as the source filed them.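 Rule for the calls: active = compounds giving half or more protection of infected cells from virus-caused growth loss, again on retest; inactive = the rest.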 Where a SMILES comes first, the peptide text is derived from it. The star is where a group is joined. Boc = CC(C)(C)OC(=O)*; OBn = c1ccc(CO*)cc1

System: CEM cells HIV-1 protection, formazan growth assay
Test: NCI AIDS Antiviral Assay
Details: for pIC50: measured here: growth of uninfected CEM cells
Outline: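 Category rules: moderately active means at least 50% protection on retest, and confirmed active means 100% protection reproducibly. The underlying data came from a formazan growth assay in HIV-1-infected CEM cells.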

With `CC1(C)OC(=S)N(c2ccccc2)C12C=Cc1cc3ccccc3nc1S2` (configuration not stated) the pEC50 was < 5.43 and the pIC50 was 5.48.
`Cc1cc(N(CCC#N)CCC#N)ccc1/C=C1N=C(/C=C\c2ccccc2)N(NC(=O)CC(=O)Nc2ccccc2Cl)C\1=O` was tested, and the outcome was “inactive”.
With `CCc1c(Cc2ccccc2)n(COCCCO[Si](C)(C)C(C)(C)C)c(=O)[nH]c1=O` the pEC50 was < 3.70 and the pIC50 was 5.00.
`Cn1c(=O)c2nccnc2n(C)c1=O` was tested, and the pEC50 was 3.75 and the pIC50 was < 3.70.
`COC(=O)NC12CC3CC(CC(F)(C3)C1)C2` was tested, and the pEC50 was < 3.24 and the pIC50 was 3.84.
In the case of `Cn1cnc2c1S(=O)(=O)NC(=S)N2`, the pEC50 was < 2.94 and the pIC50 was < 2.94.
With `COc1cc2c(cc1OC)C1c3ccccc3CN1CC2` (configuration not stated) the pEC50 was < 3.70 and the pIC50 was 3.98.
`Nc1c(-c2nc3ccccc3s2)[n+]([O-])c2ccccc2[n+]1[O-]` was tested, and the outcome was “inactive”.
In the case of `CC1C2=C(C(=O)N1Cc1ccccc1)C(C1OC(COC(=O)c3ccccc3)C(OC(=O)c3ccccc3)C1OC(=O)c1ccccc1)C(=O)N(C)C2=O` (configuration not stated), the pEC50 was < 5.14 and the pIC50 was < 5.14.
For `CCCCn1cnnc1NS(=O)(=O)c1cc(C)c(Cl)cc1SCC(=O)O`, the pEC50 was < 3.70 and the pIC50 was < 3.70.
With `COc1cc2c(c3c1C(=O)[C@H](C)[C@@H](C)O3)C=CC(C)(C)O2` the pEC50 was < 3.70 and the pIC50 was 4.30.
With `CCOC(=O)c1[nH]n(-c2ccccc2)c(=O)c1/C=N/C(=S)NNC(C)=O` the outcome was “inactive” and the pIC50 was 3.86.
For `COc1ccc(CC(CO)NC(=O)OCc2ccccc2)cc1Oc1ccc(CC(CO)NC(=O)OCc2ccccc2)cc1` (configuration not stated), the pEC50 was < 3.70 and the pIC50 was 5.00.
For `CNC(=O)c1[nH]cnc1/N=N/N(C)N`, the pEC50 was < 3.70 and the pIC50 was 3.74.
`Cn1c(=O)c2c(nc3n(C)c(=O)c4ccccc4n23)n(C)c1=O` was tested, and the pEC50 was < 3.70 and the pIC50 was 5.60.
`COc1cc2ccc3c4c(OC)cc(OC)c(OC)c4c(=O)n(C)c3c2cc1OC` was tested, and the pEC50 was < 4.34 and the pIC50 was 5.44.
For `O=P1(c2ccccc2)c2ccccc2-c2ccccc21`, the pEC50 was < 3.70 and the pIC50 was 3.99.
`[N-]=[N+]=NC1=CC(=O)c2cccc3cccc1c23` was tested, and the pEC50 was < 4.12 and the pIC50 was 5.16.
For `CCOC(=O)c1cc(Br)c(-c2cc(C)no2)[nH]1`, the pEC50 was < 3.70 and the pIC50 was 5.83.
`CCOC(=O)/C(=C\c1ccccc1OC)P(=O)(OCC)OCC` was tested, and the pEC50 was < 3.14 and the pIC50 was 4.88.
For `CN(C)C(C(N)=O)c1ccc(Cl)cc1` (configuration not stated), the outcome was “inactive”.
With `COC(=O)/N=[N+](\[O-])C(c1ccc(OC)cc1)C1CCCCC1` (configuration not stated) the pEC50 was < 3.70 and the pIC50 was 5.25.
In the case of `O=C(CSc1nnc(-c2ccc(N=Cc3ccc(Cl)cc3)cc2)o1)Nc1ccc([N+](=O)[O-])cc1`, the pEC50 was < 4.42 and the pIC50 was 4.81.
For `O[C@H]1[C@H]2c3cc4c(cc3CN3CCC(C[C@@H]1O)[C@H]23)OCO4` (some centres not stated), the outcome was “inactive”.
With `CCOC(=O)c1ccc(NCc2ccc3nc(OC)c(OC)nc3c2)cc1` the pEC50 was < 4.00 and the pIC50 was < 4.00.
`COc1cc(O)c2cc1Oc1ccc(cc1)CC1=NCCc3cc(OC)c(cc31)Oc1c(OC)c(OC)c(OC)c3c1[C@H](C2)N(C)CC3` was tested, and the outcome was “inactive”.
With `CC(C)C(NC(=O)C(Cc1ccccc1)NC(=O)OC(C)(C)C)C(=O)NCC(=O)OCc1ccccc1` (stereo not drawn) (Boc-Phe-Val-Gly-OBn; configuration not given here) the pEC50 was < 3.70 and the pIC50 was 4.97.
With `OCC12C=CC(C1)c1ccccc12` (configuration not stated) the pEC50 was < 3.60 and the pIC50 was < 3.60.
`Oc1ccccc1C=Nc1ccccc1N=Cc1ccccc1O` was tested, and the pEC50 was < 5.34 and the pIC50 was < 5.34.
For `CCOC(=O)C/C(C)=N\NS(=O)(=O)c1ccc(N)cc1`, the pEC50 was < 3.38 and the pIC50 was < 3.38.
In the case of `COC(=O)c1cc(C(=CCCC(C)[C@H]2CCC3C4CC[C@@H]5CC(F)(F)CC[C@]5(C)C4CC[C@@]32C)c2cc(Cl)c(OC)c(C(=O)OC)c2)cc(Cl)c1OC` (some centres not stated), the pEC50 was < 4.00 and the pIC50 was < 4.00.
